Reference: patent US20190167711A1, “METHODS FOR DIAGNOSIS AND TREATMENT OF ACUTE LYMPHOBLASTIC LEUKEMIA” (MOR RESEARCH APPLICATIONS LTD., priority 2014, published 2019)

Assays:
Nalm-6 cells [1] = test: Tumor growth of transfected Nalm-6 cells injected s.c. into NOD/SCID mice; format: in vivo
From the text: As described herein, decreased expression of miR-451 in comparison to a control level can serve as a prognostic factor for ALL relapse risk, as low expression of miR-451 at first diagnosis predicts worse outcome. […] Scrambled miRNA-transfected cells served as negative control (Nalm-6/miR-NC). Quantitative reverse transcription PCR (RT-qPCR) was used to confirm miR-451 expression in the transfected cells.
To further study the putative tumor-suppressive function of hsa-miR-451 in vivo, 10^7 viable Nalm-6 cells either untransfected, transfected in vitro with miR-451 mimic, or transfected with scrambled miR (control), were injected sub-cutaneously (s.c.) into the right flanks of 6-week-old female NOD/SCID mice. […] On day 26, the median tumor volume in the scrambled control mice and the miR-451 mimic mice were 204.69 mm^3 (SE=63.96) and 23.32 mm^3 (SE=13.12), respectively (p=0.019). At the end of the experiment, mice were sacrificed, and the tumors were weighted. The median tumor weight in the scrambled control mice and the miR-451 mimic mice were 0.0966 gr (SE=0.040) and 0.0159 gr (SE=0.0009), respectively (p=0.046) (FIG. 4C).

NAMPT = NAMPT expression by FACS in transfected Nalm-6 cells; format: cell-based
Description: One to two million NALM-6 transfected cells were collected 48 hours after transfection and fixed using 500 μl fixation and permeabilization buffer prior to immunofluorescent staining of intracellular proteins (e.g., BD Phosflow™ Fix Buffer I (BD Biosciences, San Jose, Calif., USA)) for 15 minutes. Then, pellets were washed twice using PBS and resuspended in 500 μl methanol. Samples were incubated for 2 hours in −20° C. For staining, pellets were washed with PBS and resuspended in 10 ml BD™ Cell Wash buffer (BD Biosciences, San Jose, Calif., USA) containing 2% FCS. The cells were stained for NAMPT using anti-NAMPT antibody (Ab) (1:1000) (R&D Systems®, MN, USA). […] The cells were sorted on flow cytometer (Calibur™ flow cytometer, Becton Dickinson, Le Pont-De-Claix, France) and analyzed using BD CellQuest™ Pro software.
Using open access software programs (TargetScan and miRanda), NAMPT was identified as a predicted target of miR-451. […] NAMPT expression was measured by FACS analysis using a specific NAMPT antibody.
In order to assess a possible association or correlation between miR-451 expression levels and sensitivity to in-vivo treatment of ALL with a NAMPT inhibitor, the effect of the NAMPT inhibitor FK866 was assessed in the presence of elevated levels or lowered levels of miR-451 in ALL xenograft mouse model. […] Tumors volume was measured daily.

Nalm-6 cells [2] = test: XTT cell viability assay in Nalm-6 cells; format: cell-based; conditions: NALM-6 cells, transient expression
Description: Cell viability assay was performed using the Cell Proliferation Kit comprising the second-generation tetrazolium dye, XTT. Viable cells with active metabolism convert XTT into an orange colored reduction product, whereas dead cells lose the ability to reduce XTT, thus, color formation serves as a useful and convenient marker of only the viable cells.
The XTT kit was applied to NALM6 transfected cells according to the manufacturer's protocol (Biological Industries, Kibbutz Beit Haemek, Israel). Cells were incubated for 3 hours with the XTT reagent and quantity of reduced XTT (directly proportional to the number of viable cells) was assessed by recording changes in absorbance as measured on a microplate reader at 450-500 nm optical density (OD).
To measure the effect of NAD^+ depletion following FK866 treatment of Nalm-6 cells, apoptosis and viability were measured as described in Materials and Methods. Nalm-6 cells were treated for 48 hours with 1 nM FK866, and then apoptosis was measured using FACS.

CXCL16 = test: Western blot of CXCL16 in transfected NALM-6 cells; format: cell-based; conditions: NALM-6 transient
From the text: Protein was extracted from NALM-6 cell line using Qproteome™ lysis buffer (Qiagen, Hilden, Germany). The membrane was then probed with one or more of the following antibodies: anti-disintegrin and metalloproteinase domain-containing protein 10 (ADAM10) (1:1000) (Abcam; Cambridge, UK) (see Example 9); anti-chemokine C-X-C motif 16 (CXCL16) (1:1000); anti-NAMPT (1:1000); and anti-GAPDH (1:5000) (Santa Crus Biotechnology, Santa Crus, Calif., USA) (see Examples 5 and 9). The secondary antibodies were goat anti-mouse and goat anti-rabbit (1:10,000) (Sigma®, Saint Louis, Mo., USA), for each antigen according to the manufacturer's instructions. […]
Intensity of the protein band was measured using an in-house program. […]
Possible miR-451 targets were evaluated using several open access software programs (e.g., Targetscan, PicTar, miRanda, miRDB). […] In the first screening, the suppression of ADAM10, CXCL16 and NAMPT protein level was analyzed in NALM-6 cells transiently expressing miR-451 mimic (SEQ ID NO: 2) and in cells transiently expressing scrambled-miR (universal sequence; negative control) by Western blot as described in Materials and Methods. […]

Substance: miR-451 mimic: a dsmiR-451 designed to copy or mimic the functionality of mature endogenous miR-451 upon transfection (AAACCGUUACCAUUACUGAGUU; double-stranded mimic, further chemistry not given here; listed as Homo sapiens)
- tumor growth vs scrambled miR control cells (Nalm-6 cells [1]; after 20 days): significantly decreased tumor growth
- median tumor volume (Nalm-6 cells [1]; day 26, 10^7 transfected Nalm-6 cells s.c., female NOD/SCID mice): 23.32 mm^3
- median tumor weight (Nalm-6 cells [1]; end of the experiment): 0.0159 gr
- NAMPT protein expression decreased by (NAMPT): 46%
- effect on viability (Nalm-6 cells [2]): No effect
- CXCL16 protein level compared to scrambled-miR (CXCL16): only NAMPT protein expression levels were reduced
